Earlier results on 1 compound are cited in patent US7858598B2, “Reagents for detection of hypochlorous acid” (Morningside Ventures Limited & Versitech Limited, priority 2007, dated 2010).

SMILES strings stand for the structures.

Take `OCl` [hypochlorous acid]: the pKa – broadly, the negative logarithm of the acid dissociation constant – is given as 7.6.
